Measured values published in patent publication US10149644B2, “Curcumin derivatives for amyloid-β plaque imaging” (The General Hospital Corporation, priority 2008, dated 2018).
Entries after “also recorded” stand apart in the source; their conditions may differ. Where two headings read alike, the source gives them in different places.

Tests used:
Aβ40 aggregates [1] = target: T1, Aβ40 aggregates (Homo sapiens, UniProt P05067); assay: In vitro Aβ aggregates binding constant measurement
T1 construct: Synthetic amyloid-b protein (1-40) was purchased from rPeptide; purchased rPeptide (Bogart, Ga.)
Protocol: […] The Kd binding curve was generated by software Prism 3.0 with nonlinear one-site binding regression.
Binding constant (Kd) of CRANAD-2 towards Aβ aggregates was measured by fluorescence intensity (F.I.) with various concentrations of the prob.

Aβ40 aggregates [2] = target: T1, Aβ40 aggregates; assay: Fluorescence response of probe to Aβ40 aggregates, Aβ40 monomer and PBS; assay type: binding
Source text: We compared the fluorescence intensity of CRANAD-2 with PBS (pH 7.4), Aβ40 peptide, and Aβ40 aggregates generated from Cu^2+ induced aggregation.

Serum stability test = assay type: in vitro ADME, human; details: for recovery at 2 h, 4 μM: human, human serum, 37° C., ethyl acetate extraction
Protocol: CRANAD-2 (4.0 μM) was incubated at 37° C. for 2 h with 1.0 mL human serum, then ethyl acetate (4×5.0 mL) was added, stirred at room temperature for 10 min., and centrifuged to give clear organic supernatant. The ethyl acetate solution was subjected to fluorescence intensity measurement (F.I.(660 nm)=8713), and the concentration of CRANAD-2 was calculated (0.14 μM) using the equation (Y=474+61.7 X, where Y is F.I., and X is the concentration) generated from standard curve of CRANAD-2 in ethyl acetate. The recovery of CRANAD-2 was about 70%. After the fluorescence measurement, the ethyl acetate solution was concentrated to 40 μL, and 10 μL was injected for HPLC analysis. By HPLC, the recovery of CRANAD-2 was about 75%, which was close to the result from fluorescence measurement.
Since serum albumin is the most abundant plasma protein, it was important to test whether the probe had any affinity toward this protein. To test this the inventors incubated CRANAD-2 probe with BSA. For controls, the inventors used PBS buffer alone, the probe incubated in PBS alone, and with Aβ40 aggregates. […] In addition, the inventors tested CRANAD-2 stability by incubating the probe (4×10^−6M) with human serum for 2 hours at 37° C.

Aβ plaques = assay: Histological staining of Tg2576 mice brain slices; details: co-staining with Thioflavin S
Protocol: Tg2576 mice brain tissue was cut into 25 micron slices. The slices were fixed with 4% formalin for 5 min and washed with PBS buffer twice. For Thioflavin S staining the slices were dipped into thioflavin S solution (1.0% in 50% ethanol) for 5 min., then differentiated in 70% ethanol for 5 min., rinsed with distilled water twice and mounted using Vecta shield mounting medium. Similar procedure was used to incubate sliced tissue with our probe. Histological slide was treated with, 0.01% CRANAD-2 in 10% acetone, 40% ethanol and 50% water for 15 min. For co-staining: the procedure was similar. The slices were first stained with thioflavin S, and washed with 70% ethanol for 5 min, then stained with the solution of CRANAD-2.

Aβ40 aggregates [3] = target: T1, Aβ40 aggregates; assay: Aβ aggregates detection in solution by fluorescence spectrum; assay type: binding; details: 250 nM compound, 250 nM Aβ40 aggregates, PBS, one minute
Protocol: They then incubated 250 nM of the compounds with 250 nM of Aβ40 aggregates (calculation based on monomer) in PBS for one minute, and then measured the fluorescence spectra of the solutions.

[4] = Fluorescence emission properties of the probes; assay type: physicochemical
Protocol: Reagents used for synthesis were purchased from Aldrich without further purification. Column chromatography was performed on silica gel (SiliCycle Inc., 60 Å, […]) slurry packed into glass columns. Thioflavin S was purchased from Aldrich. Synthetic amyloid-b protein (1-40) was purchased from rPeptide (Bogart, Ga., 30622) and aggregates for in vitro studies were generated followed the reported procedure. BSA was purchased from Sigma, and human serum was obtained from Invitrogen (type AB). ^1H and ^13C NMR spectra were recorded at 400 MHz and 100 MHz respectively, and are reported in ppm downfield from tetramethylsilane. Fluorescence studies were carried out with F-4500 Fluorescense Spectrophotometer. Fluorescence quantum yields were determined using aqueous solution of Cy5.5-maleimide as a standard (y=0.23). High resolution mass spectra were obtained at the Harvard University, Department of Chemistry Instrumentation Facility. Transgenic Tg2576 mice {45} and littermates were purchased from Taconic Farm, Balb/c mice for BBB penetrating test were obtained from Jackson Laboratory, and the experiment procedure was approved by Massachusetts General Hospital. In vivo imaging was recorded on Kodak Imaging Station 2000MM.
Furthermore, by comparing the fluorescence intensity in methanol, the quantum yield of CRANAD-2 was significant higher than that of curcumin (FIG. 2). […] Additionally, these modifications produced a large stokes shift and improved quantum yield of CRANAD-2. The synthesized compound produced the longest emission and the largest stokes shift among the existing probes for senile plaque detection {3}.

T1 sequence (P05067 672-711 limits assumed): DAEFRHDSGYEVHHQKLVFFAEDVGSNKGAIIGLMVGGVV

Structure (SMILES): CN(C)c1ccc(/C=C/C2=CC(/C=C/c3ccc(N(C)C)cc3)=[O+][B-](F)(F)O2)cc1 [CRANAD-2]
- Affinity to Aβ aggregates (Aβ40 aggregates [1]): high affinity to Aβ aggregates
- Kd (Aβ40 aggregates [1]; Aβ40 aggregates in PBS, fluorescence intensity, nonlinear one-site regression, read-out: Binding constant (Kd) towards Aβ aggregates): 38.7 ± 2.77 nM
- Fluorescence intensity with Aβ40 peptide monomer vs PBS (Aβ40 aggregates [2]; Aβ40 monomer): did not observe any significant difference
- Quantum yield in PBS buffer (Aβ40 aggregates [2]; PBS buffer): 0.6%
- Quantum yield in PBS (Aβ40 aggregates [2]; PBS, given as fraction): 0.006
- Quantum yield after binding to Aβ40 aggregates (Aβ40 aggregates [2]; bound to Aβ40 aggregates, given as fraction): 0.40
- Quantum yield upon binding to aggregates (Aβ40 aggregates [2]; bound to aggregates): 40%
- Fluorescence intensity increase in the presence of Aβ40 aggregates (Aβ40 aggregates [2]; vs PBS): 70 fold
- Stability in serum in vitro (Serum stability test): considerable stability in serum
- recovery at 2 h, 4 μM (Serum stability test; read-out: Recovery after serum incubation, by HPLC): ~75%
- recovery at 2 h, 4 μM (Serum stability test; read-out: Recovery after serum incubation, by fluorescence): ~70%
- Staining of Aβ plaques in brain tissue (Aβ plaques): specificity towards Aβ plaques; also recorded: specific staining with Aβ plaques
- Fluorescence intensity change with Aβ40 aggregates (Aβ40 aggregates [3]): intensity increases
- Wavelength shift with Aβ40 aggregates (Aβ40 aggregates [3]): wavelength blue-shifts
- Stoke shift in PBS ([4]; PBS only): 140 nm
- Stoke shift in PBS with Aβ aggregates ([4]; PBS with Aβ aggregates): 70 nm
- λmax(em) ([4]; probe alone, methanol (FIG. 2)): 760 nm
- λmax(ex) ([4]; probe alone, methanol (FIG. 2)): 640 nm
